Assay results taken from patent US20090055945A1, “Method for Producing Nuclear-Transplanted Egg” (priority 2005, published 2009).

What was measured:
[1] = tested on: oocytes after fertilization; conditions: treatment of oocytes after fertilization; Non-patent Document 3; cited from earlier work
[2] = tested on: bovine reconstructed embryos; test: Early embryonic development of bovine reconstructed embryos; assay type: cell-based; conditions: for Number of cleaved embryos / Cleavage rate (cleaved embryos to cultured embryos): 48 hours postactivation; for Number of embryos at the blastocyst stage: 168 hours postactivation
Protocol: Bovine ovaries collected from sacrificed cows at a local slaughterhouse were stored in physiological saline at 25° C. and transported to the laboratory within 6 to 8 hours after slaughter. Bovine oocytes were harvested by aspiration of follicular fluids from follicles with diameters of 2 to 5 mm on the surfaces of bovine ovaries using 21G injection needles (Terumo, Tokyo, Japan) and 10-ml syringes (Terumo). Only oocyte-cumulus cell complexes to which 2 to 4 layers of cumulus cells were attached were selected and collected from the harvested follicular fluids. The collected oocyte-cumulus cell complexes were introduced into drops of 50 μl maturation medium under mineral oil (Sigma, USA) and cultured for 21 hours at 39° C. under 5% CO2 and 95% air at saturation humidity. The maturation medium was prepared by adding 0.02 AU/ml of follicle-stimulating hormone (FSH, Antrin, Kawasaki Seiyaku, Kanagawa, Japan) and 1 μg/ml estradiol 17-β (Sigma) to 25 mM HEPES buffered TCM-199 (Earle's salts, Gibco, m-TCM199E) supplemented with 5% (v/v) new born calf serum (NBCS, Gibco, N.Y., USA) and 25 μg/ml of gentamicin solution (Sigma).
The oocyte-cumulus cell complexes matured for 21 hours were allowed to stand for 5 minutes in a solution containing 5% NBCS and 25 μg/ml gentamicin solution (Sigma) in 25 mM HEPES-buffered TCM-199 (Hank's salts, Gibco, m-TCM199H) containing 0.25% (w/v) hyaluronidase (Sigma). Then, the cumulus cells attached around the oocytes were fully removed by pipetting.
The oocytes from which the cumulus cells had been removed were transferred to m-TCM119H and only oocytes with the first polar bodies had been emitted were selected under an inverted microscope. Zonae pellucidae above each first polar bodies were incised using a fine glass needle for removing nuclei from the oocytes, and the oocytes were transferred to m-TCM119H supplemented with 5 μg/ml cytochalacin B (Sigma) and allowed to stand for 15 minutes. Each oocyte was held from the upside using the glass needle used for incising zona pellucida, and enucleation was carried out by removing the first polar body and the oocyte cytoplasm neighboring the first polar body corresponding to about 10 to 20% of the oocyte cytoplasm volume from the zona pellucida incision site. The removed oocyte cytoplasm was transferred to m-TCM199E containing 20 μg/ml of Hoechst 33342 (Sigma) and stained at 39° C. under 5% CO2 and 95% air at saturated humidity for 30 minutes, and the enucleation was confirmed by judging the presence of nucleus in the enucleated oocyte cytoplasm under UV irradiation.
Fibroblasts derived from an auricle of Japanese black cattle calves were used as donor cells for nuclear transfer. The donor cells were cultured to 80% confluency in Dulbecco's modified Eagle medium (DMEM, Nissui, Tokyo, Japan) supplemented with 10% (v/v) fetal bovine serum (FBS, Funakoshi, Tokyo, Japan). The culture medium was then exchanged for DMEM supplemented with 0.4% FBS, and the cells were cultured under serum-starvation conditions for 7 days. The cells cultured under serum-starvation conditions were isolated from the culture dishes using a 0.25% (w/v) solution of trypsin (Sigma) containing 0.04% (w/v) disodium dihydrogen ethylenediaminetetraacetic acid (EDTA, Nacalai Tesque, Kyoto, Japan). The cells were harvested by centrifugation in a centrifuge tube, and suspended in a phosphate buffered saline (PBS, Gibco) (−) solution containing 10% (w/v) polyvinylpyrrolidone (PVP, Nacalai Tesque). The isolated cells were aspirated into a micro-glass pipette for cell introduction, and introduced from the zona pellucida incision sites into the perivitelline spaces of the recipient enucleated oocytes. […]

[3] = tested on: oocytes into which nuclei from fibroblasts were transferred; test: Expanded blastocyst formation, fibroblasts as donor cells; assay type: cell-based, mouse; conditions: fibroblast donor nuclei; 50 nM TSA for 20 hours; FIG. 8
Protocol: A procedure similar to that described in Example 1 was carried out using fibroblasts or embryonic stem cells (ES cells) as donor cells in place of cumulus cells. Fibroblasts were obtained by culturing a fragment of mouse tail (Non-patent Document 11). E14 cells were used as ES cells (Non-patent Document 12).
Oocytes into which nuclei from the donor cells were transferred were treated with TSA for 20 hours, and cultured in KSOM medium without TSA until 96 hours after the initiation of activation. Then, development into expanded blastocysts was observed and the blastocyst formation rate was determined. 30 or more embryos were examined in each of the experimental groups of the respective cells.

[4] = tested on: fibroblasts as donor cells; conditions: donor fibroblasts cultured with agent prior to nuclear transfer; Non-patent Document 1; cited from earlier work
[5] = TSA in the culture medium, 5-500 nM

CC(/C=C/C(=O)NO)=C\[C@@H](C)C(=O)c1ccc(N(C)C)cc1 [TSA, trichostatin A]
development rate [1]: reduced
Cell number ± SEM of blastocysts ([2]; TSA 5 nM for 48 hours): 89 ± 6
Number of cleaved embryos ([2]; TSA 5 nM for 48 hours, 106 cultured embryos): 85
Cleavage rate (cleaved embryos to cultured embryos) ([2]; TSA 5 nM for 48 hours): 80%
Number of embryos at the blastocyst stage ([2]; TSA 5 nM for 48 hours): 28
Cell number ± SEM of blastocysts ([2]; TSA 50 nM for 48 hours): 83 ± 6
Number of cleaved embryos ([2]; TSA 50 nM for 48 hours, 97 cultured embryos): 73
Cleavage rate (cleaved embryos to cultured embryos) ([2]; TSA 50 nM for 48 hours): 75%
Number of embryos at the blastocyst stage ([2]; TSA 50 nM for 48 hours): 29
Cell number ± SEM of blastocysts ([2]; TSA 500 nM for 48 hours): 92 ± 8
Number of cleaved embryos ([2]; TSA 500 nM for 48 hours, 97 cultured embryos): 73
Cleavage rate (cleaved embryos to cultured embryos) ([2]; TSA 500 nM for 48 hours): 75%
Number of embryos at the blastocyst stage ([2]; TSA 500 nM for 48 hours): 5
increase in blastocyst development rate ([2]; TSA at a certain concentration for a certain period of time): about 2 fold
influence on cell number of blastocysts [2, 5]: did not influence
influence on cleavage rate [2, 5]: did not influence
blastocyst development rate compared with the case without TSA [3]: higher
blastocyst development rate [4]: increased
